{"source": "patent US20120083464A1", "about": "“NEUROPROTECTIVE PROPERTIES OF 5'-METHYLTHIOADENOSINE” (priority 2009, published 2012)", "key": {"[1]": {"system": "IL-1β release", "assay": "LPS neuroinflammation model in cerebellar organotypic cultures: IL1-beta ELISA", "type": "cell-based, C57/B16 wild type mice", "conditions": "192 μM MTA pre-treatment, 15 μg/ml LPS, 3 hrs", "excerpt": "Organotypic cultures model of neuroinflammation is based on previous observations in which systemic injections of lipopolysaccharide (LPS) in mice spinal cord induce inflammation, demyelinization and Wallerian degeneration. In mice cerebellar organotypic cultures, LPS induces microglia activation with consequent demyelination and axonal damage. In particular, LPS induces TNF-alpha, IL1-beta release, axonal swelling and end bulbs due to axonal transport block, and a decrease of axonal density. Organotypic cultures represent the best model to represent in vivo mechanisms since they maintain cell-cell interaction and organotypic structure of brain region studied. In this way, this in vitro neuroinflammation model reproduces the microglia activation, demyelinization and axonal damage phenomena observed in MS.\nCerebellar organotypic cultures which were pre-treated for half hour with 192 μM of MTA and 15 μg/ml of LPS have been used to generate neuroinflammation model.\n2. Data analysis: Western blot, immunofluorescence and ELISA analysis were performed using conventional techniques."}, "[2]": {"system": "Corticospinal tract-YFP mice with chronic EAE", "assay": "Chronic EAE (model of progressive multiple sclerosis), clinical score and axonal density", "type": "in vivo, mice (C57B6 background)", "excerpt": "Chronic EAE was induced in Corticospinal tract-YFP mice (C57B6 background; see Bareyre et al., Nat Med. 2005 December; 11(12):1355-60) immunized with MOG. The fluorescence labelling of motor axons, allows an accurate quantification of axonal damage during EAE.\n1. Align spinal cords of all animals and cut out the following pieces of the spinal cord at the same level in all animals: a) a piece of the cervical spinal cord (about 1 cm in length) starting around at the upper cervical level around C1/2 (this will allow you to determine the number of CST fibers that enter the spinal cord); b) a piece of the lumbar spinal cord (about 1 cm in length) starting around the mid-lumbar level L2/3 (this will allow you to determine the number of fibers that reach the lumbar spinal cord).\n5. Mount the tissue and analyze the sections using confocal microscopy—use a high-resolution objectives e.g. a 60× oil objective and take a single image plan covering the entire corticospinal tract.\n6. Then simple count the number of dots (=number of fibers)—we usually do this blinded on 3-5 sections and then calculate the average for the CST as the CST—especially in the cervical spinal cord which contains many fibers it might be easier to estimate the total number of cervical CST fibers based on counts of several CST areas with a defined size. […]"}, "[3]": {"system": "hippocampal neurons after pilocarpine-induced status epilepticus", "assay": "Pilocarpine model of temporal lobe epilepsy (status epilepticus), hippocampal histology", "type": "in vivo, Sprague-Dawley rats", "conditions": "for quantification of cells in area CA1 at 30 days after SE: preliminary", "excerpt": "We compared two MTA treatment regimens to examine its neuroprotective effect on pilocarpine-induced SE in adult rats. One regimen involved 5 days of MTA treatment beginning beginning 2 days before SE (pre-SE MTA). The other regimen, a more clinically relevant protocol, consisted of MTA treatment for 3 days beginning at the termination of SE (post-SE MTA).\nYoung adult (175-200 g), male Sprage-Dawley rats were divided into four MTA treatment groups, 9-11 rats per group. In group A, rats were subjected to pilocarpine-induced status epilepticus (SE). Following 90 minutes of continuous seizure activity, SE was stopped by a single administration of diazepam (10 mg/kg). The rats were injected either with vehicle or MTA once daily for 3 days. Rats were sacrificed at day 4 after SE, and their brains perfusion fixed, frozen and sectioned for histology. In group B, treatment of rats was the same as Group A except that the rats were sacrificed at day 30 after SE. In group C, rats were treated with MTA once daily for two days. On the third day, rats underwent pilocarpine-induced SE. The rats were continuously treated with MTA once daily for 3 more days; controls received placebo The rats were then anesthetized and sacrificed day 4 after SE. In group D, rats were treated the same way as Group C except that the rats were sacrificed on 30 days after SE.\nThe sections were subjected to cresyl violet (Nissl) staining and NeuN immunostaining to examine cell loss. Timm staining to identify mossy fiber sprouting was performed on the 30-day survival group."}, "[4]": {"system": "MAPK, p38/SAPK and STAT3 pathways", "assay": "Intracellular phosphorylation in PC12 cells (Luminex)", "type": "cell-based, rat", "conditions": "PC12 cells after MTA-induced differentiation, four days", "excerpt": "The phosphorylation of different intracellular proteins was detected using Luminex technology. After the neurite differentiation assay the PC12 cells were received in lysis buffer and tested using different antibodies: total Akt/PKB, total p38/SAPK, total STAT3, total ERK/MAPK, total P70 S6 Kinase, phosphorolyated Akt/PKB (Ser473), phosphorylated Akt/PKB (Thr 308), phosphorylated p38/SAPK (Thr180/Tyr182), phosphorilyated STAT 3 (Tyr705/Ser 727), phosphorylated ERK/MAPK (Thr185/Tyr187) and phosphorylated P70 S6 Kinase (Thr412)."}, "[5]": {"system": "RN22 cells", "assay": "Copper sulphate stress in RN22 cells, ROS levels", "type": "cell-based, rat", "conditions": "copper sulphate 150 μM, different time periods", "protocol": "RN22 cells were maintained at 37° C. in DMEM medium supplemented with 10% of fetal bovine serum and penicillin/streptomycine. The assays against stress with copper sulphate were conducted using 24-well plates in DMEM medium without serum. After allowing cell adherence for three days, NGF (100 ng/ml) or MTA was added to different concentrations half an hour before the copper sulphate (150 μM). After twenty-four hours, cell viability was quantified by MTT assay and ROS production was quantified by fluorescence. Assays against stress with hydrogen peroxide were conducted in the same way as the foregoing, using 100 μM hydrogen peroxide as a stress-producing agent.\nWe determined the quantity of ROS produced by the cells after stress with and without treatment. 2′,7′- dichlorodihydrofluorescein (DCFH) is generally used to measure oxidative stress in cells. The cells were incubated with DCFH-DA (10 μM) at 37° C. for thirty minutes. After incubation, the cells were washed twice with PBS and lysed by adding 10 mM Tris-HCL buffer containing 0.5% of Tween 20. The homogenates were then centrifuged at 10,000 g for ten minutes to separate the cell residue and […] fluorescence in the supernatant was measured using a fluorometer (excitation wavelength 492-495 nm, emission wavelength 517-527 nm) (Invitrogen)."}}, "note": "“Also recorded” adds a separate entry of the source."}
{"smiles": "CSC[C@H]1O[C@@H](n2cnc3c(N)ncnc32)[C@H](O)[C@@H]1O", "note": "[MTA, 5′-methylthioadenosine]", "values": [{"measurement": "IL-1β release (ELISA)", "setting": "[1]", "result": "decreases; also recorded: minor quantity"}, {"measurement": "clinical symptoms (EAE clinical score) versus placebo", "setting": "[2]; MTA 96 μMol/Kg i.p. daily from first day with EAE score of 2 or higher", "result": "amelioration of the clinical symptoms"}, {"measurement": "axonal density in lumbar and cervical spinal cord versus placebo", "setting": "[2]; MTA 96 μMol/Kg i.p. daily, chronic phase", "result": "significantly higher axonal density"}, {"measurement": "hippocampal neuronal loss, qualitative (Nissl stain, NeuN immunohistochemistry)", "setting": "[3]; MTA started before or after SE, early and late timepoints, dentate hilus, CA1, CA3", "result": "qualitatively reduced neuronal loss; also recorded: qualitatively more Nissl-stained cells"}, {"measurement": "mossy fiber sprouting (Timm stain)", "setting": "[3]; late timepoint, either MTA group", "result": "No qualitative difference"}, {"measurement": "quantification of cells in area CA1 at 30 days after SE", "setting": "[3]; post-SE MTA group, p=0.057", "result": "trend toward neuroprotection; also recorded: non-significant trend toward increased cell numbers"}, {"measurement": "hippocampal NeuN immunoreactivity at 30 days after SE (representative example)", "setting": "[3]; post-SE MTA, dentate gyrus", "result": "only mild cell loss"}, {"measurement": "quantification of cells in area CA1 at 30 days after SE", "setting": "[3]; pre-SE MTA group, p=0.02", "result": "significant neuroprotective effects"}, {"measurement": "hippocampal NeuN immunoreactivity at 30 days after SE (representative example)", "setting": "[3]; pre-SE MTA, dentate gyrus and pyramidal cell layer", "result": "good preservation of neurons"}, {"measurement": "phosphorylation of intracellular proteins: MAPK, p38/SAPK and STAT3 pathways", "setting": "[4]", "result": "activation"}, {"measurement": "ROS production under copper sulphate stress", "setting": "[5]", "result": "reduce ROS production"}]}
